Measured values published in the NIST ThermoML archive (doi:10.1016/j.jct.2018.10.015).

Assay: xn = mol fraction of the nth substance listed
Conditions: 101.3 kPa, Liquid; for viscosity: Concentric cylinders viscometry; for mass density: Vibrating tube method

CCn1cc[n+](C)c1C.O=S(=O)([N-]S(=O)(=O)C(F)(F)F)C(F)(F)F + COC(=O)OC
Conditions | mass density [kg/m3] | viscosity [mPa·s]
293.15 K, x1 = 0.099 | 1189 | 1.706
293.15 K, x1 = 0.1994 | 1269.4 | 3.137
293.15 K, x1 = 0.298 | 1325 | 5.492
293.15 K, x1 = 0.4006 | 1368.1 | 9.266
293.15 K, x1 = 0.5003 | 1400.9 | 14.65
293.15 K, x1 = 0.5738 | 1420.8 | 20.1
293.15 K, x1 = 0.6927 | 1447.3 | 31.98
293.15 K, x1 = 0.8138 | 1469.2 | 49.28
293.15 K, x1 = 0.8951 | 1481.5 | 64.02
293.15 K, x1 = 1 | 1495.8 | 89.88
298.15 K, x1 = 0.099 | 1183 | 1.581
298.15 K, x1 = 0.1994 | 1263.8 | 2.849
298.15 K, x1 = 0.298 | 1319.6 | 4.9
298.15 K, x1 = 0.4006 | 1362.9 | 8.114
298.15 K, x1 = 0.5003 | 1395.7 | 12.58
298.15 K, x1 = 0.5738 | 1415.7 | 17.03
298.15 K, x1 = 0.6927 | 1442.3 | 26.57
298.15 K, x1 = 0.8138 | 1464.3 | 40.16
298.15 K, x1 = 0.8951 | 1476.7 | 51.6
298.15 K, x1 = 1 | 1491 | 71.34
303.15 K, x1 = 0.099 | 1177 | 1.469
303.15 K, x1 = 0.1994 | 1258.1 | 2.6
303.15 K, x1 = 0.298 | 1314.2 | 4.402
303.15 K, x1 = 0.4006 | 1357.7 | 7.169
303.15 K, x1 = 0.5003 | 1390.6 | 10.91
303.15 K, x1 = 0.5738 | 1410.6 | 14.6
303.15 K, x1 = 0.6927 | 1437.4 | 22.36
303.15 K, x1 = 0.8138 | 1459.4 | 33.22
303.15 K, x1 = 0.8951 | 1471.8 | 42.25
303.15 K, x1 = 1 | 1486.3 | 57.64
308.15 K, x1 = 0.099 | 1171 | 1.368
308.15 K, x1 = 0.1994 | 1252.4 | 2.383
308.15 K, x1 = 0.298 | 1308.8 | 3.98
308.15 K, x1 = 0.4006 | 1352.5 | 6.384
308.15 K, x1 = 0.5003 | 1385.5 | 9.555
308.15 K, x1 = 0.5738 | 1405.6 | 12.64
308.15 K, x1 = 0.6927 | 1432.4 | 19.05
308.15 K, x1 = 0.8138 | 1454.5 | 27.85
308.15 K, x1 = 0.8951 | 1467 | 35.08
308.15 K, x1 = 1 | 1481.5 | 47.26
313.15 K, x1 = 0.099 | 1164.8 | 1.276
313.15 K, x1 = 0.1994 | 1246.8 | 2.192
313.15 K, x1 = 0.298 | 1303.4 | 3.619
313.15 K, x1 = 0.4006 | 1347.3 | 5.728
313.15 K, x1 = 0.5003 | 1380.4 | 8.44
313.15 K, x1 = 0.5738 | 1400.5 | 11.05
313.15 K, x1 = 0.6927 | 1427.5 | 16.38
313.15 K, x1 = 0.8138 | 1449.7 | 23.62
313.15 K, x1 = 0.8951 | 1462.2 | 29.48
313.15 K, x1 = 1 | 1476.7 | 39.24
318.15 K, x1 = 0.099 | 1158.7 | 1.193
318.15 K, x1 = 0.1994 | 1241.2 | 2.023
318.15 K, x1 = 0.298 | 1298 | 3.308
318.15 K, x1 = 0.4006 | 1342.1 | 5.173
318.15 K, x1 = 0.5003 | 1375.3 | 7.511
318.15 K, x1 = 0.5738 | 1395.5 | 9.74
318.15 K, x1 = 0.6927 | 1422.6 | 14.24
318.15 K, x1 = 0.8138 | 1444.8 | 20.25
318.15 K, x1 = 0.8951 | 1457.4 | 25.06
318.15 K, x1 = 1 | 1472 | 33
323.15 K, x1 = 0.099 | 1152.5 | 1.114
323.15 K, x1 = 0.1994 | 1235.5 | 1.87
323.15 K, x1 = 0.298 | 1292.7 | 3.037
323.15 K, x1 = 0.4006 | 1336.9 | 4.699
323.15 K, x1 = 0.5003 | 1370.2 | 6.73
323.15 K, x1 = 0.5738 | 1390.5 | 8.649
323.15 K, x1 = 0.6927 | 1417.6 | 12.48
323.15 K, x1 = 0.8138 | 1440 | 17.52
323.15 K, x1 = 0.8951 | 1452.6 | 21.53
323.15 K, x1 = 1 | 1467.2 | 28.05
328.15 K, x1 = 0.099 | 1146.3 | 1.042
328.15 K, x1 = 0.1994 | 1230 | 1.737
328.15 K, x1 = 0.298 | 1287.3 | 2.802
328.15 K, x1 = 0.4006 | 1331.7 | 4.286
328.15 K, x1 = 0.5003 | 1365.2 | 6.083
328.15 K, x1 = 0.5738 | 1385.5 | 7.757
328.15 K, x1 = 0.6927 | 1412.7 | 11.06
328.15 K, x1 = 0.8138 | 1435.1 | 15.34
328.15 K, x1 = 0.8951 | 1447.8 | 18.72
328.15 K, x1 = 1 | 1462.4 | 24.16
